Results reported in patent publication US20030206882A1, “Fatty acid sanitizer” (priority 2002, published 2003).

Assays:
[1] = Compatibility/stability of the aqueous composition; format: physicochemical; settings: heptanoic acid alone versus with sulfonate coupler
[2] = tested on: Staphylococcus aureus ATCC 6538; experiment: Sanitizing Efficacy/Germicidal and Detergent Sanitizing Action of Disinfectants; format: cell-based; settings: summary of Table 7, heptanoic acid without coupler
Procedure: Sanitizing Efficacy/Germicidal and Detergent Sanitizing Action of Disinfectants—Final Action
This test measures the sanitizing efficacy against Staphylococcus aureus ATCC 6538 and Escherichia coli ATCC 11229 with a 10% milk challenge at a 15 second exposure time. A 10% milk challenge is achieved by adding 90 ml of the test formulation to 10 ml of milk, mixing, and removing 1 ml for a final volume of 99 ml.

CCCCCCC(=O)O [heptanoic acid]
compatibility (stability) of the composition (in words) [1]: less compatibility | antimicrobial efficacy (in words) [2]: satisfactory antimicrobial efficacy
